# Key:
# [1] = small animal oral toxicity test; format: in vivo; conditions: albino rat, aqueous solutions derived from concentrate (EPA/MRID)
# Text: Example 1 is a small animal oral toxicity test of 3-(tri-methoxysilyl)propyldimethyl octadecyl ammonium chloride in aqueous solutions derived from concentrate. The small animal was an albino rat (EPA/MRID.) The result acute oral LD50 at 12.27 g (grams) per kg (kilogram.) That is, the lethal dose in 50% of the test subjects 12.27 grams per kilogram of body weight. This translates to a 100 kg person ingesting 1.227 kg of the raw material (or 1723 liters) at one time. The monomer poses no ingestion hazard.
# [2] = system: Escherichia coli ATCC 8739; conditions: coated paper, 0.15% by weight of BKC; cited from earlier work
# [3] = system: Staphylococcus aureus ATCC 6538; conditions: coated paper, 0.15% by weight of BKC; cited from earlier work
compound,measurement,setting,value
"CCCCCCCCCCCCCCCCCC[N+](C)(C)CCC[Si](OC)(OC)OC.[Cl-] [1-Octadecanaminium, N,N-dimethyl-N-[3-(trimethoxysilyl)propyl]-, chloride (1:1)]",acute oral LD50,[1],12.27 g (grams) per kg (kilogram.)
"N-Alkyl-N-benzyl-N,N-dimethylammonium chloride [BKC]",inhibition,[2],~100%
same,inhibition,[3],~100%

# — US20230097707A1, “METHODS AND ARTICLES FOR KEEPING FOOD FRESHER FOR LONGER AND SHELF-LIFE EXTENSION TO ENHANCE FOOD SECURITY AND SAFETY” (priority 2021, published 2023)
